Assay results published in patent US20250276999A1, “PEPTIDES FOR PROMOTING HAIR FOLLICLE NEOGENESIS, AND PREVENTION/MITIGATION OF UNTOWARD EFFECTS OF RADIATION TREATMENT” (Trustees of Tufts College, priority 2022, published 2025).
“Also recorded” adds a separate entry of the source.

Columns and labels:
[1] = system: human hair follicle formation in grafted DECs; test: Dermal-epidermal composites (DECs) grafted onto nude mice; format: in vivo, NIH(S)-nu/nu female mice
Protocol: We next asked if TNS peptides could increase human hair follicle formation in grafted dermal-epidermal composite cultures. Human dermal papilla cells isolated from temporal scalp dermis and propagated in vitro. Normal foreskin keratinocytes (NFK) were isolated from neonatal foreskins (pooled from 5-7 donors) and were cultured in serum-free medium supplemented with EGF and bovine pituitary extract. Dermal epidermal composites (DECs) were prepared with human dermal papilla cells and NFK and were grafted onto nude mice. Imaging was done at 4 weeks, 6 weeks, 8 weeks, 10 weeks and 12 weeks and staining for hHLA was performed to evaluate hair follicle anatomy (FIG. 3). TSN peptides increased hair follicle generation (FIG. 3) as well as increased epidermal proliferation in vivo (FIG. 4).
Dermal-epidermal composites and grafting: Human dermal papilla cells isolated from temporal scalp dermis (Promocell, Heidelberg, Germany) from a donor (HDP47) were propagated in vitro according to manufacturer's recommendations. Normal foreskin keratinocytes (NFK) were isolated from neonatal foreskins (pooled from 5-7 donors) and were cultured in serum-free medium (Keratinocyte-SFM, Invitrogen), supplemented with EGF and bovine pituitary extract according to manufacturer's recommendation. Dermal epidermal composites (DECs) were prepared with human dermal papilla cells and NFK and were grafted onto nude mice. […]

[2] = system: X-ray irradiated and wounded mice; test: Combined injury murine model (thoracic X-ray irradiation plus wound); format: in vivo, C57BL/6 mice
Source text: The C57BL/6 strain of mice has been utilized extensively for the study of radiation-induced skin injuries. We determined that 16 Gy is the minimal dosage for the induction of radiation burns in C57BL/6 mice that are not repaired within 45 days. Sham irradiated mice without wounds were used as controls for radiation dermatitis, and treated identically as irradiated mice. Wounded mice, without radiation, were used as controls for combined injury.
Animals were irradiated in the RS2000 small animal irradiator. The RS2000 provides a cone-shaped radiation field with irradiation at 12.39-40.50 cm from the X-ray source. For dose measurements, irradiation was performed with the following settings: 160 kVp, 25 mA, 90 s irradiation time and 0.3 mm Cu beam filtration. The approximate HVL provided by the manufacturer was 0.62 mm Cu. The University of Wisconsin Medical Radiation Research Center (UW MRRC) provided eight acrylic mouse phantoms with three (1×1×1 mm) Harshaw thermoluminenscence dosimeter (TLD)-100 microcubes (ThermoElectron Corp., Oakwood Village, OH) embedded in each phantom. The cylindrical phantom had dimensions of 27 mm in diameter (D)×65 mm in length (L) and was stabilized by a cylindrical insert 15 mm (D)×27 mm (L) with a 3 mm thick stand. A custom lead shield was placed on the floor of the irradiator, with the mouse thoracic region ˜43.75 cm from the X-ray source. Dose measurements were conducted twice to account for set-up error and reproducibility. TLDs were processed at UW MRRC using a national standard with an expanded uncertainty (k=2) of 5%. The dose rate was reported for each aperture position 1-4 as an absorbed dose rate to water (ADRW, Gy/min) and the two repeated measurements were averaged.
Mice (12-14 weeks of age) were anesthetized using inhaled anesthesia (isoflurane), and the fur was clipped on the dorsal side of the thoracic region. Two days after fur clipping, mice to be used for combined injury were given acetaminophen (150 mg/kg in 0.5 ml sterile saline) by gavage. Animals were then anesthetized with injected anesthesia (150 mg/kg ketamine/18 mg/kg xylazine) and placed in Lucite jigs for exposure to 16.5 Gy thoracic irradiation in the RS2000 X-ray irradiator as previously described. For combined injury, immediately following thoracic irradiation and while still under anesthesia, the area of the skin was scrubbed with betadine or chlorhexidine, followed by cleaning with an alcohol pad. A 9/16 inch diameter punch biopsy tool was used to create a 1 cm wound in the central dorsal thoracic region, roughly in the center of the field of radiation exposure. The panniculus carnosus muscle and overlying skin will be removed. The wound will be left open to air. The size of the wound approximates 15% of the total body skin surface.
TSN6 peptide (5 μg/day in 50 μl sterile saline) or hepatocyte growth factor (HGF; 3.3 μg/day in 50 μl sterile saline) or vehicle (sterile saline, 50 μl) were injected subcutaneously on days 2, 7 and 10 post-irradiation. Injections were made caudal, adjacent to the irradiated or irradiated/wounded area.
Animals were monitored daily for 85 days post-irradiation for both radiation dermatitis and combined injury models. Radiation dermatitis was separately scored for hair loss, erythema, scale, and ulceration. Scoring for erythema, scale and ulceration were previously described: 0=none; 1=minimal; 2=mild; 3=moderate; 4=marked. Because all animals underwent fur clipping prior to irradiation and wounding, scoring for hair loss was determined as failure to regrow hair in the irradiated areas: 0=none; 1=minimal; 2=mild; 3=moderate; 4=marked. Animals were photographed for the measurement of wounds and for dermatitis scoring. […] Weight was measured as an indication of overall health.

[3] = 16.5 Gy plus wound, s.c. days 2, 7, 10, TSN6 5 μg/day, HGF 3.3 μg/day

Sequence: HSPDIQLQKGLTFEPIQIK [TSN6, 19 amino acid peptide derived from multimerin-1, Coiled coil domain]
- epidermal proliferation in vivo (Ki-67+ cells in epidermis of grafts) ([1]; 1 μM peptide vs scrambled, P=0.08 (FIG. 4)): stimulates epidermal proliferation
- human hair follicle formation in grafted DECs ([1]; 12 weeks after grafting, human HLA staining, vs TSN6-scrambled (FIG. 3)): increases human hair follicle formation
- time to wound closure in the presence of radiation ([2]; 16.5 Gy plus 9/16 inch wound, TSN6 5 μg/day s.c. days 2, 7, 10, irradiated vehicle ~30 days, no radiation ~14 days): about 16 days post-irradiation
- combined injury (overall) ([2]; 16.5 Gy plus wound, TSN6 5 μg/day s.c. days 2, 7, 10 (FIG. 7)): Mitigation of combined injury
- characteristics of radiation dermatitis (hair loss, scale, erythema, ulceration) including combined score [2, 3]: markedly reduced
- rate of wound closure / wound repair [2, 3]: increased the rate of wound closure
- radiation dermatitis in images of mice ([2]; 57, 71 and 75/79 days post-irradiation, vs vehicle (FIG. 13)): vast improvement; also recorded: improves radiation dermatitis
- wound closure ([2]; 79 days post-irradiation (FIG. 13C)): full wound closure
- hair regrowth ([2]; 79 days post-irradiation, vehicle: no hair regrowth (FIG. 13)): hair regrowth; also recorded: regrows pigmented hair
